Legend:
[1] = biological target: full-length AAK1 (Homo sapiens, UniProt Q2M2I8); test: NanoBRET target engagement assay, intact and permeabilized cells; conditions: NanoBRET, mean of duplicates
Description: Compounds were pipetted at various concentrations using an Echo acoustic dispenser (Labcyte), immediately followed by Tracer K10 (Promega, Tracer DB ID: T000008) for AAK1 and Aurora A and VHL Tracer (Promega, Tracer DB ID: T000019) for VHL, at an optimum KD concentration chosen from TracerDB ( tracerdb.org), respectively.
To measure the BRET signal, the NanoBRET® NanoGlo Substrate (Promega:
N1573) was added as per the manufacturer’s protocol, and filtered luminescence was measured on a PHERAstar plate reader (BMG Labtech) equipped with a luminescence filter pair (450 nm BP filter (donor) and 610 nm LP filter (acceptor)). For NanoBRET® measurement in permeabilized cells, 25 nL of digitonin (0.05 μg/μL) was pipetted into each well using an
After incubation, the BRET signals were measured by a PHERAstar plate reader (BMG Labtech) following the same procedure as intact NanoBRET® measurement. Competitive displacement data were then normalized to controls and were plotted using GraphPad Prism 9 software employing a normalized 3-parameter curve fit with the following equation:

[2] = test system: Jurkat cells; test: CellTiterGlo cell viability assay; type: cell-based, human; conditions: Homo sapiens, 24 h, mean of triplicates, ^b/^c values estimated, read-out: IC50±sd/μM (cell viability)
Description: The effects of the compounds on cell viability was determined using the CellTiter-Glo® 2.0 Cell Viability Assay (Promega: G9241) following manufacturer’s protocol. Ten µL of Jurkat cells at […]
After equilibration, PROTACs were titrated at various concentrations using an Echo acoustic […]
volume of CellTiter-Glo® 2.0 reagent (10 µL) was added to each well and cells were incubated for 10 minutes at room temperature. Filtered luminescence was measured on a PHERAstar plate reader (BMG Labtech) and data was evaluated using GraphPad Prism 9 software employing a normalized curve it with the following equation: Y=Bottom + (Top-Bottom)/(1+10(LogEC50-X) *HillSlope).
Sample preparation. Jurkat cells (ATCC © HTB-22) were cultured in RPMI (Thermo: […]

[3] = biological target: T1, AAK1 (Homo sapiens, UniProt Q2M2I8); test: Kinobeads selectivity profiling; type: binding; conditions: Jurkat lysate, dose series given in nM, read-out: Kd (apparent dissociation constant, corrected for protein depletion)
T1 construct: endogenous in cells; host or cells: Jurkat (Clone E6.1) cell lysate
Description: (§1) Excitation and emission filters […]
(§2) curve. […] Measurements were
(§3) Kinobeads selectivity profiling of PROTACs
(§4) (Multiplexion, Heidelberg, Germany).
(§5) The cell lysate was ultracentrifuged and diluted
(§6) NaF, 1 mM DTT, protease inhibitors and phosphatase inhibitors to a final concentration of 5 mg/ml as determined by Bradford assay. For selectivity profiling of compounds the cell lysate (2.5 mg of total proteins per pulldown) was pre-incubated with increasing compound […]
(§7) µM) for 45 min at 4 °C in an end-over-end shaker. Subsequently, lysates were incubated with Kinobeads epsilon (17 µL settled beads) for 30 min at 4 °C. To assess the degree of protein depletion from the lysates by Kinobeads, the flow-through of the DMSO control was recovered […]
(§8) for a pulldown of pulldown experiment where the lysate was incubated a second time with fresh Kinobeads. Beads were washed in 3 steps with buffer containing 0.4%, 0.2% and no NP40.
(§9) Bound proteins were reduced with 50 mM DTT in 8 M Urea, 40 mM Tris-HCl pH 7.4 for 30 min at room temperature. After alkylation with 55 mM chloroacetamide (CAA), the Urea concentration was reduced to 1 – 2 M and proteins were digested using trypsin. Acidified peptides were desalted and concentrated using SepPak tC18 µEluation plates (Waters).
(§10) Samples were frozen, dried by vacuum centrifugation and stored at -20 °C.
(§11) LC-MS2 analysis. Peptides were measured on a Dionex Ultimate3000 nano HPLC coupled online to an Orbitrap Fusion Lumos (Thermo Fisher Scientific) mass spectrometer.
(§12) Peptides were dissolved in 0.1% formic acid and delivered to a trap column (ReproSil-pur C18-AQ, 5 μm, Dr. Maisch, 20 mm × 75 μm, self-packed) at a flow rate of 5 μL/min in LC solvent A (0.1 % formic acid).4 After 10 min of loading, peptides were transferred to an analytical column (ReproSil Gold C18-AQ, 3 μm, Dr. Maisch, 400 mm × 75 μm, self-packed) and separated using […]
(§13) acetonitrile) in LC solvent A.
(§14) The Orbitrap Fusion Lumos was operated as follows: positive polarity; spray voltage 2.1 kV, […]
(§15) A full-scan (MS1) was recorded from 360 to 1300 m/z with a resolution of 60,000 in the Orbitrap in profile mode. The MS1 AGC target was set to 4e5 and the maxIT was set to 50 ms, RF lens value was set to 50%. Based on the full scans, precursors were targeted for the MS/MS scans […]
(§16) intensity exceeded 2.5e4. The dynamic exclusion was set to 30 sec and exclude isotopes was switched on. The MS2 quadrupole isolation window was set to 1.7 m/z. Peptide fragmentation occurred in the ion routing multipole (IRM) by HCD with a fixed collision energy mode, the […]

[4] = biological target: T2, ABL1 (Homo sapiens, UniProt P00519); test: Kinobeads selectivity profiling; type: binding; conditions: Jurkat lysate, dose series given in nM, read-out: Kd (apparent dissociation constant, corrected for protein depletion)
T2 construct: endogenous in cells; host or cells: Jurkat (Clone E6.1) cell lysate
Description: as §1, §2, §3, §4, §5, §6, §7, §8, §9, §10, §11, §12, §13, §14, §15, §16

[5] = biological target: T3, ITK (Homo sapiens, UniProt Q08881); test: Western blot assay; type: cell-based; conditions: Jurkat cells, 6 h
T3 construct: endogenous in cells; host or cells: Jurkat
T3 sequence (Q08881 1-620): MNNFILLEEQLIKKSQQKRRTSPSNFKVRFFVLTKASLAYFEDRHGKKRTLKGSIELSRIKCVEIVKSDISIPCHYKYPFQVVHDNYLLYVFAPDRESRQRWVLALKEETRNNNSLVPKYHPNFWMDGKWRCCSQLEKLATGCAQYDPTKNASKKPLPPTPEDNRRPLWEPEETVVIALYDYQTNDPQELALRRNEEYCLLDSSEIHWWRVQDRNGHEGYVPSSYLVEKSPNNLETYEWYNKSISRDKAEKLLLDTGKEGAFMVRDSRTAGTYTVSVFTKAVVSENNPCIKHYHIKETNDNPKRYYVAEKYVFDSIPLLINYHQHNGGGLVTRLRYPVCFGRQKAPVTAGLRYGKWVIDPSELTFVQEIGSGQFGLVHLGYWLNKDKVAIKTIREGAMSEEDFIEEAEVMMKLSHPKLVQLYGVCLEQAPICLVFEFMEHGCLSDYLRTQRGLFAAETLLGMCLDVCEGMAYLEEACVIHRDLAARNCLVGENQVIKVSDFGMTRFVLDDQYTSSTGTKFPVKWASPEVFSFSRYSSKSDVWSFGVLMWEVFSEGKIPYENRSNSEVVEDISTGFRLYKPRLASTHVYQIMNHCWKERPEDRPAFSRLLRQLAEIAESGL
Description: (§17) Two mL of Jurkat cells were seeded into 6 well plates (Greiner) at a density of 5·10 5 cells/mL.
(§18) The following day, cells were treated with compounds at according concentrations or DMSO for 6 hours and then lysed with 6 M Urea at 4 °C for 20 minutes. The lysates were centrifuged for 15 minutes at 16000 g and the supernatant was collected to perform the Western-Blot.
(§19) Protein quantification was performed using nanodrop One. The SDS samples were prepared […]
(§20) The samples were separated by a BIS-TRIS polyacrylamide gel polyacrylamide gel, 100 V for 1:45) followed by transfer to PVDF membranes (Millipore) at 350 mA for 140 minutes. The membranes were blocked using 5%wt/vol BSA (in TBS-T, 20 mM Tris-HCl, pH 7.5, 150 mM NaCl and 0.1% (vol/vol) Tween 20) at room temperature for 1 hour.
(§21) The blots were incubated with respective primary antibodies at 1:1000 dilution (Cell Signaling technologies: Aurora A (D3E4Q), ITK (2F12) and GAPDH (D4C6R)) at 4 °C overnight. The blots were washed with TBS-T thrice and incubated with 1:5000 dilution of horseradish peroxidase (HRP)-labelled respective secondary antibodies (Cell Signaling technologies, Anti- […]
(§22) The blots were washed with TBS-T thrice and then incubated with chemiluminescent HRP substrate (Bio-Rad) for 2 minutes. The blots were imaged and the signals were detected using the Amersham ImageQuant 800 (Cytiva).
(§23) Cell culture. Human MV4-11 ([…]) and human Jurkat ([…]) cells were cultured in RPMI- […]
(§24) °C in 5% CO2. Both media were supplemented with 10% FBS and 1% penicillin/streptomycin. […]

[6] = biological target: T4, AURKA (Homo sapiens, UniProt O14965); test: Western blot assay; type: cell-based; design: endogenous in cells; host or cells: Jurkat; conditions: Jurkat cells, 6 h
T4 sequence (O14965 1-403): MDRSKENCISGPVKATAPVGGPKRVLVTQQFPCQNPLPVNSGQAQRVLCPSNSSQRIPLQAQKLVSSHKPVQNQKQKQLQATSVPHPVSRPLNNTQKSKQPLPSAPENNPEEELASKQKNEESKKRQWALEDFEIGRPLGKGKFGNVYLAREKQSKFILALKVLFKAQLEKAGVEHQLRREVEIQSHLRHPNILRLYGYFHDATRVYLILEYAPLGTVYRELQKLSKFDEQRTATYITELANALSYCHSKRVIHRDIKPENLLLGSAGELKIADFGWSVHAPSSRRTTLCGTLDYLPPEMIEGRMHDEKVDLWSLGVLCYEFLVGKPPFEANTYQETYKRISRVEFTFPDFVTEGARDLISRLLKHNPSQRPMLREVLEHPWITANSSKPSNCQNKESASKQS
Description: as §17, §18, §19, §20, §21, §22, §23, §24

[7] = AAK1 intact (IC50±sd)/μM, intact cells, ^a values estimated by extrapolation
[8] = AAK1 permeabilized (IC50±sd)/μM, permeabilized cells

full-length AAK1, sequence (Q2M2I8 whole entry): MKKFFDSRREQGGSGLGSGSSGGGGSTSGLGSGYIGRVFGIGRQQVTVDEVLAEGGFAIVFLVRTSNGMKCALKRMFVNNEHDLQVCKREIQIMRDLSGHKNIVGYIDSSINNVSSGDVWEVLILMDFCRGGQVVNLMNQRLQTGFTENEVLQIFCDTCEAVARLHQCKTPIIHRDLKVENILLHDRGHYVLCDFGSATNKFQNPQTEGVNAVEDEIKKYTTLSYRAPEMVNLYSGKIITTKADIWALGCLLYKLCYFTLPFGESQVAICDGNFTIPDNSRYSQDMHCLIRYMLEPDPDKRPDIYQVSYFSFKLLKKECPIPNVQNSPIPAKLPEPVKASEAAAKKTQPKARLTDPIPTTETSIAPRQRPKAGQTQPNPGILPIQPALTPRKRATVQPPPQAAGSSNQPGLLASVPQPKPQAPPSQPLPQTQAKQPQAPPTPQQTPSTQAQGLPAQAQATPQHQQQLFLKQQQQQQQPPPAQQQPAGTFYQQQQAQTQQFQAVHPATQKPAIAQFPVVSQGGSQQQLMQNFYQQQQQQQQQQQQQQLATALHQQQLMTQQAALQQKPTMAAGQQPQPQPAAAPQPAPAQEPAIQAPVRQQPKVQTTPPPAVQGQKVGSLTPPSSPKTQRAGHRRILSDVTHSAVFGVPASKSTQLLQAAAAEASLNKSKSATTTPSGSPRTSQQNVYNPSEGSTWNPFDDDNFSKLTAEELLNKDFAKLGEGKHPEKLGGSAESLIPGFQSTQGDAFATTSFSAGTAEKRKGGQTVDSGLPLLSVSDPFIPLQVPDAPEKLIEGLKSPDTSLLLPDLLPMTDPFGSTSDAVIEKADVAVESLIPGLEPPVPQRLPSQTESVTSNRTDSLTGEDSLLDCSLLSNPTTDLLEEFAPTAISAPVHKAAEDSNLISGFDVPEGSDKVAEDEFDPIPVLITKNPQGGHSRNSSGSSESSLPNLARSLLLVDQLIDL
T1 sequence (Q2M2I8 whole entry): as above
T2 sequence (P00519 whole entry): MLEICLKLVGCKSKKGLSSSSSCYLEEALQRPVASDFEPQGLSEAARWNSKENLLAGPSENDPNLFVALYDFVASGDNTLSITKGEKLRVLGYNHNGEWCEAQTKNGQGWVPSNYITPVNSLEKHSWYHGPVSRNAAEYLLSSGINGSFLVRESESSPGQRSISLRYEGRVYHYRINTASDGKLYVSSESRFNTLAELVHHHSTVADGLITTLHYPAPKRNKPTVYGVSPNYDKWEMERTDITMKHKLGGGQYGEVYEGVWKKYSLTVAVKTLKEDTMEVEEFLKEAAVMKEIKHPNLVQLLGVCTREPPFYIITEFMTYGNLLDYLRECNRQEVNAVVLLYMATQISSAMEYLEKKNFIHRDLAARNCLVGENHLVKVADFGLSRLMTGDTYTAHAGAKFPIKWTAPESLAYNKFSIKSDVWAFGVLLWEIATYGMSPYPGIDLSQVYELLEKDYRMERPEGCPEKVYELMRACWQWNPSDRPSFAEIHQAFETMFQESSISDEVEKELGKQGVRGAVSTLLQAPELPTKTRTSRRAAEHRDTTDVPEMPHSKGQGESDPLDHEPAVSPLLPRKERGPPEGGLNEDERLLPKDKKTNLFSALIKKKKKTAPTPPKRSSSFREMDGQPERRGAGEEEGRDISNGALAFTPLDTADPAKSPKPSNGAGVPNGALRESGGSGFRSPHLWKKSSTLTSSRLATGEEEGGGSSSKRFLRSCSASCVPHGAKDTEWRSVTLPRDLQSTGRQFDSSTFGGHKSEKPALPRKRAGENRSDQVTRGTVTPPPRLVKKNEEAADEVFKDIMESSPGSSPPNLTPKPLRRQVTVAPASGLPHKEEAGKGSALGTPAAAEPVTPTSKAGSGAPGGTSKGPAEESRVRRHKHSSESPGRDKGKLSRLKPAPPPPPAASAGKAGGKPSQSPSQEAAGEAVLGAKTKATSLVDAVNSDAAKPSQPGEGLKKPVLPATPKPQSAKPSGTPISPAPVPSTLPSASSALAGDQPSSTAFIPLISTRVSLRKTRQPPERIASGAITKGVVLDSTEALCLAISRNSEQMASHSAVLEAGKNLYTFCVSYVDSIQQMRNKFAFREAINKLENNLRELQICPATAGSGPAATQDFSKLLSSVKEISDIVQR

IC50 [1, 7] [µM] | IC50 [1, 8] [µM] | IC50 [2] [µM] | Kd [3] [nM] | Kd [4] [nM] | ITK protein levels (Western blot) [5] | AURKA protein levels (Western blot) [6] | SMILES
0.004 ± 0.001 | 0.004 | 0.7 ± 0.2 | 6.4 | 420 | – | – | NC(=O)c1ccccc1Nc1nc(Nc2ccc(N3CCNCC3)cc2)ncc1Cl [compound 6]
– | – | – | – | – | only weak degradation of ITK | – | COc1cc(C)c(Sc2cnc(NC(=O)c3ccc(N4CCN(CCCCCCCNC(=O)COc5cccc6c5C(=O)N(C5CCC(=O)NC5=O)C6=O)CC4)cc3)s2)cc1C(=O)N1CCN(C(C)=O)CC1 (centres unmarked) [BSJ-05–037, reference compound]
– | – | – | – | – | – | strong degradation | O=C(COc1cccc2c1C(=O)N(C1CCC(=O)NC1=O)C2=O)NCCOCCOCCNC(=O)C1(Cc2cccc(Nc3nccs3)n2)CCC(Oc2cccc(Cl)c2F)CC1 (centres unmarked) [JB300, reference compound]
0.005 | 0.003 | – | 29.4 | 2970 | – | – | CC(C)(C)OC(=O)N1CCN(c2cc(Nc3cc(C4CC4)[nH]n3)nc(Nc3ccc(CC#N)cc3)n2)CC1 [compound 4]

From article PMC11851430, “Workflow for E3 Ligase Ligand Validation for PROTAC Development” (ACS Chemical Biology, 2025)
